Reference: patent US20100168225A1, “Small-Molecule Hepatitis C Virus (HCV) NS3/4A Serine Protease Inhibitors” (priority 2007, published 2010)

Biological target: SARS 3CL^PRO (Severe acute respiratory syndrome coronavirus, UniProt P0C6X7)
Assay: biochemical
Details: ID50

Point of comparison: `CC(=O)Nc1cc2cc(OC(C)=O)c(OC(C)=O)cc2oc1=O` [Compound C12, 3-aminoacyl-6,7-diacetoxycoumarin], IC50 183 µM. Against it:
- O=c1ccc2ccc(O)c(O)c2o1 [Compound C10, Daphnetin] — within 1.5-fold, 168 µM
- O=c1oc2cc(O)c(O)cc2cc1O [Compound C11, 3-hydroxyesculetin] — 1.9-fold lower, 97 µM
- O=c1oc2c(O)c(O)ccc2cc1O [Compound C21, 3,7,8-trihydroxycoumarin] — 1.8-fold lower, 100 µM
- CC(=O)Nc1cc2ccc(OC(C)=O)c(OC(C)=O)c2oc1=O [Compound C22, 3-aminoacyl-7,8-diacetoxycoumarin] — within 1.5-fold, 184 µM

Same assay, conditions: ID50 (μM) (by kinetic assay) SARS 3CL^PRO

Compound `O=c1oc2cc(O)c(O)cc2cc1O` [Compound C11, 3-hydroxyesculetin] has an IC50 of 96.6 µM.
